Experimental data taken from patent US20260216242A1, “ALPP-SPECIFIC VARIANT ANTIGEN BINDING MOLECULES” (ALMAC DISCOVERY LIMITED, priority 2022, published 2026).
Where “and” joins values, the source holds several entries; their conditions need not be identical. Identical values can stand only once. Like-named read-outs stand apart in the source and are kept apart here. Where a SMILES comes first, the peptide text is derived from it. [ ]: non-standard residue; d: D form. The star is where a group is joined. Dolaproine = CO[C@@H]([C@@H]1CCCN1)[C@@H](C)C(=O)O; Dil = CC[C@H](C)[C@H](NC)[C@@H](CC(=O)O)OC; X1 = C[C@@H](N*)[C@@H](O)c1ccccc1; NMeV = CN[C@H](C(=O)O)C(C)C

Tests used:
[1] = system: CHO-ALPP cells; experiment: In vitro cell viability (Cell Titre Glo, 96 h), CHO-ALPP; assay type: cell-based; conditions: cell-killing
Description: (§1) CHO-ALPP isoform stable transfectants were generated using CHO-K1 cells (CCL-61) provided by the American Type Culture Collection (ATCC). Grown in ATCC-formulated F-12K medium+10% FCS.
(§2) In vitro cell viability assays for cancer cells treated with anti ALPP/ALPPL2 drug conjugates Cells were seeded in the appropriate complete growth media, as described above, into white, clear bottom 96 well plates (Costar) and incubated at 37° C., 5% C02 for 24 hours. On the following day, dilution series were set up for each test agent at ×10 working stocks. The dose response X10 stock was e.g.: 10000, 5000, 1000, 500, 100, 50, 10, 5, 1, 0.5 nM etc. […] Plates were allowed to sit for a further 10 minutes at room temperature prior to measuring luminescence read-out using a Clariostar plate-reader (BMG). Data was analysed by calculating the average for untreated (vehicle only) control wells and determining the % of control for each treated well. % of control data was then plotted against Log [Treatment] concentration and the IC50 value derived using non-linear regression fitting in GraphPad Prism software. […]
(§3) Cell Titre Glo assays were performed as described in Example 5. Cells were incubated with VHH-hFc-drug conjugates and h12F3 drug conjugates at 37° C., 5% CO2 for 96 hours and the % of cell viability determined as a function of dose response. […]

[2] = system: NCI-H1651 cells; experiment: In vitro cell viability (Cell Titre Glo, 96 h), NCI-H1651; assay type: cell-based; conditions: Table 24
Description: NCI-H1651 cells, CRL-5884 provided by the American Type Culture Collection (ATCC). Grown in ATCC DMEM:F12 medium+10% FCS plus supplements required to make ACL-4 media as recommended by ATCC.
as §2, §3

[3] = system: CHO-ALPI cells; experiment: In vitro cell viability (Cell Titre Glo, 96 h), CHO-ALPI; assay type: cell-based; conditions: cell-killing
Description: as §1
as §2, with “etc. 10 μL of the X10 stock solutions were added to the cell plates (90 μl per well) using a multichannel pipette. […] 10 μl of vehicle control (PBS) was added to the control wells (columns 11 and 12). Plates were incubated at 37° C., 5% CO2 for 96 hours.” for “etc.”

[4] = system: NCI-N87 cells; experiment: In vitro cell viability (Cell Titre Glo, 96 h), NCI-N87; assay type: cell-based, human; conditions: Table 24
Description: NCI-N87 cells, CRL-5822 provided by the American Type Culture Collection (ATCC). Grown in RPM11640+10% FCS.
as §2, with “etc. 10 μL of the X10 stock solutions were added to the cell plates (90 μl per well) using a multichannel pipette.” for “etc.”
(§4) Cell Titre Glo assays were performed as described in Example 5. Cells were incubated with biparatopic VHH-hFc-drug conjugates and h12F3 drug conjugate at 37° C., 5% CO2 for 96 hours and the % of cell viability determined as a function of dose response. […]

[5] = system: CHO-ALPPL2 cells; experiment: In vitro cell viability (Cell Titre Glo, 96 h), CHO-ALPPL2; assay type: cell-based; conditions: cell-killing
Description: as §1, §2, §3

[6] = system: MKN1 cells; experiment: In vitro cell viability (Cell Titre Glo, 96 h), MKN1; assay type: cell-based; conditions: Table 24
Description: MKN1 cells (RCB1003, Riken BRC). Ref: Cancer Sci 2006; 97:387-394, were provided by the RIKEN BRC through the National BioResource Project of the MEXT, Japan Grown in RPMI1640+10% FCS.
as §2, §4

[7] = system: CHO-ALPL cells; experiment: In vitro cell viability (Cell Titre Glo, 96 h), CHO-ALPL; assay type: cell-based; conditions: cell-killing
Description: as §1
as §2, with “etc. 10 μL of the X10 stock solutions were added to the cell plates (90 μl per well) using a multichannel pipette. […] 10 μl of vehicle control (PBS) was added to the control wells (columns 11 and 12). Plates were incubated at 37° C., 5% CO2 for 96 hours.” for “etc.”

[8] = system: HeLa cells; experiment: In vitro cell viability (Cell Titre Glo, 96 h), HeLa; assay type: cell-based; conditions: ALPP/ALPPL2 negative cell-line, Table 24
Description: HeLa cells, CCL-2 provided by the American Type Culture Collection (ATCC). Grown in EMEM+10% FCS
as §2, with “etc. 10 μL of the X10 stock solutions were added to the cell plates (90 μl per well) using a multichannel pipette. […] 10 μl of vehicle control (PBS) was added to the control wells (columns 11 and 12). Plates were incubated at 37° C., 5% CO2 for 96 hours. Promega Cell Titre Glo reagent was used as per the manufacturer's instructions to assess cell viability.” for “etc.”

CC[C@H](C)[C@@H]([C@@H](CC(=O)N1CCC[C@H]1[C@H](OC)[C@@H](C)C(=O)N[C@H](C)[C@@H](O)c1ccccc1)OC)N(C)C(=O)[C@@H](NC(=O)[C@@H](NC)C(C)C)C(C)C [MMAE, monomethylauristatin E] (H-[NMeV]V[Dil][Dolaproine]-X1)
IC50 ([1]; Table 18, read-out: IC50 @ 96 h, CHO-ALPP): 19.1 nM and 19.5 nM | IC50 ([1]; Table 23, read-out: IC50 at 96 h, CHO-ALPP): 19.1 nM and 19.5 nM | % viability remaining, NCI-H1651 [2]: 28.1% | IC50 ([2]; cell-killing): 0.8 nM | IC50 ([3]; Table 18, read-out: IC50 @ 96 h, CHO-ALPI): 11.4 nM and 15.9 nM | IC50 ([3]; Table 23, read-out: IC50 at 96 h, CHO-ALPI): 11.4 nM and 15.9 nM | % viability remaining, NCI-N87 [4]: 27.9% | IC50 ([4]; cell-killing): 0.3 nM | IC50 ([5]; Table 18, read-out: IC50 @ 96 h, CHO-ALPPL2): 24.4 nM and 16.6 nM | IC50 ([5]; Table 23, read-out: IC50 at 96 h, CHO-ALPPL2): 24.4 nM and 15.6 nM | % viability remaining, MKN1 [6]: 23.1% | IC50 ([6]; cell-killing): 1.4 nM | IC50 ([7]; Table 18, read-out: IC50 @ 96 h, CHO-ALPL): 29.4 nM and 25.8 nM | IC50 ([7]; Table 23, read-out: IC50 at 96 h, CHO-ALPL): 29.4 nM and 25.8 nM | % viability remaining, HeLa [8]: 5.1% | IC50 ([8]; cell-killing): 1.8 nM
